Experimental data taken from PMC3867986 (ACS medicinal chemistry letters, 2013).

Legend:
[1] = biological target: BirA (biotin protein ligase) (Mycobacterium tuberculosis, UniProt I6YFP0); type: binding; details: direct stoichiometric titration of BirA, duplicate
Chemical stability = details: long-term storage, HPLC analysis

BirA (biotin protein ligase), sequence (I6YFP0 whole entry, looked up): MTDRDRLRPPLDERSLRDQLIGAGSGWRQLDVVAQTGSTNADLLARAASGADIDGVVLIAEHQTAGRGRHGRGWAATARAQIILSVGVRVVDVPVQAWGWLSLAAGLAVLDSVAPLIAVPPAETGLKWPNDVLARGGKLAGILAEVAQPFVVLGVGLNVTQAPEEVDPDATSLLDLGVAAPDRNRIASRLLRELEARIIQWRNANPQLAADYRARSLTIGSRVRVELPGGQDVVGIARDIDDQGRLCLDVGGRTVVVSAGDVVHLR

Structure (SMILES) | ΔH [1] | chemical stability (Chemical stability)
CC(C)(C)C#Cc1nc(N)c2ncn([C@@H]3O[C@H](COS(=O)(=O)NC(=O)CCCC[C@@H]4SC[C@@H]5NC(=O)N[C@@H]54)[C@@H](O)[C@H]3O)c2n1.CCN(CC)CC [Compound 13] | -13.5 kcal/mol | –
CCN(CC)CC.Nc1nccc2c1ncn2[C@@H]1O[C@H](COS(=O)(=O)NC(=O)CCCC[C@@H]2SC[C@@H]3NC(=O)N[C@@H]32)[C@@H](O)[C@H]1O [Compound 11] | -21.2 kcal/mol | –
CCN(CC)CC.Nc1ncnc2c1ncn2[C@@H]1O[C@H](CCS(=O)(=O)NC(=O)CCCC[C@@H]2SC[C@@H]3NC(=O)N[C@@H]32)[C@@H](O)[C@H]1O [Compound 10] | – | no degradation upon long-term storage
